For one data set, the system named is H322 cells. Nature of the data set: H322 cell viability. It is filed as cell-based. The conditions noted are these: 5 d, CellTiterGlo. On the technique in general: In ATP-based viability assays light output follows the ATP content of the culture.
The test system of a further data set is CAL-51 H6PD-OE cells. Put plainly: Cell viability in CAL-51 parental vs H6PD-overexpressing cells. It is filed as cell-based. The conditions noted are these: CAL-51 H6PD-OE vs parental, 5 d.
In a further data set the test system is CAL-51 cells. Put plainly: Immunoblot of apoptosis markers in CAL-51 cells after PARPi treatment. In kind it is cell-based. The note with it: 48 h, 40 μM PARPi. In general terms: In western blotting, separated proteins are transferred to a membrane and probed.
For data set [1] the following is noted: ref Plummer et al., 2008; cited from earlier work.
The conditions of data set [2]: reach as high as; ref Murray et al., 2014; cited from earlier work.
Data set [3] concerns the target T1, H6PD (Homo sapiens, UniProt O95479).
T1 sequence (O95479 20-791): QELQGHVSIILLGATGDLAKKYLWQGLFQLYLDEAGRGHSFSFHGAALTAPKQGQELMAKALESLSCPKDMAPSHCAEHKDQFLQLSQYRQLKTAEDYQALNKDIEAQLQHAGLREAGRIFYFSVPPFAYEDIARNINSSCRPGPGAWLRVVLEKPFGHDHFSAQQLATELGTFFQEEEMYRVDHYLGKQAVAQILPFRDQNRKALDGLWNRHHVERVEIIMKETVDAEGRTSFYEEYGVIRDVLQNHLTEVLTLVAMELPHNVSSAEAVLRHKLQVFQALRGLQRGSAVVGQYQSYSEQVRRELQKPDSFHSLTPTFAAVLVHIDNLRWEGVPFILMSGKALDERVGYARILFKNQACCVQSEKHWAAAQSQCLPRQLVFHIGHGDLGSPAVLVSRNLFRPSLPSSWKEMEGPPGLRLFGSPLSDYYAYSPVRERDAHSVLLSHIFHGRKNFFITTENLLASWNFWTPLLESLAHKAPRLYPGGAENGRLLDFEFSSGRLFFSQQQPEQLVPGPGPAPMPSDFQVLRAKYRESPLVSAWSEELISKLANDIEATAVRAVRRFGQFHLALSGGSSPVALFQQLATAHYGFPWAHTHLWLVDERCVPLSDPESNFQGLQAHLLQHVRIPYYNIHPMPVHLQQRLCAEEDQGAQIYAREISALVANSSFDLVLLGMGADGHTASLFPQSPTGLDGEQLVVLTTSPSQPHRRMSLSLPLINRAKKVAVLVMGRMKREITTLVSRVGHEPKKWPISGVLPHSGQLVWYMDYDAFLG
The note with it: read-out: IC50 for H6PD inhibition (reported); ref Tagawa et al., 2015; cited from earlier work.

The conditions of data set [4]: ref Haura et al., 2010; cited from earlier work.
In the next data set the test system is CAL-51 shH6PD cells. Nature of the data set: Cell viability in CAL-51 shNT vs shH6PD cells. It is filed as cell-based. The conditions noted are these: CAL-51 shH6PD vs shNT, 5 d.
The target of data set [5] is T2, DCK (Homo sapiens, UniProt P27707). The note with it: compared to the other PARPi.
The next data set relates to A549 cells. The conditions noted are these: 2 μM cytarabine, 3 days.
Data set [6] has as its target T1, H6PD. Put plainly: Affinity matrix pulldown and immunoblot for H6PD. It is filed as binding. The note with it: CAL-51 lysate; competed with 20 μM free rucaparib.
In data set [7] the target is T2, DCK. Nature of the data set: Affinity matrix pulldown and immunoblot for DCK. In kind it is binding. The conditions noted are these: CAL-51 lysate.

In general, IC50 refers to the point on the concentration scale where inhibition reaches its midpoint.

T2 sequence (P27707 whole entry): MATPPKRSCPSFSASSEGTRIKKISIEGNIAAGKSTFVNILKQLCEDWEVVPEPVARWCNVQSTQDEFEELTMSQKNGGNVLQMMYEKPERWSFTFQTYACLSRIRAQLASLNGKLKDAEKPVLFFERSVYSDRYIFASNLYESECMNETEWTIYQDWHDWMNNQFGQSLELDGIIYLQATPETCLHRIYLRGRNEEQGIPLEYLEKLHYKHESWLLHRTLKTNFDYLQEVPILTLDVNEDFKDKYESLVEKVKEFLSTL

On to `CNCc1ccc(-c2[nH]c3cc(F)cc4c3c2CCNC4=O)cc1` [rucaparib], for which the “Viability of H322 cells at high concentrations compared to other PARPi” value with H322 cells was “decreased more”. Moreover, the “Effect of stable H6PD overexpression on IC50 for inhibition of cell viability” value in the data set with CAL-51 H6PD-OE cells is reported as “increased the IC50”. In addition, the “PARP1 and caspase-3 cleavage compared to the other PARPi” value in the data set on CAL-51 cells was “increased”. For the same molecule, the “Plasma levels in patients” value in data set [1] is 2700 nM. Further, in data set [2], the “Concentrations in murine tumors” value is ~ 20 μM.
On to `O=c1c(-c2ccc(O)cc2)coc2cc(O)cc(O)c12` [genistein], for which, at H6PD [3], the IC50 is above 50 µM.
Regarding `COc1cc2ncnc(Nc3ccc(F)c(Cl)c3)c2cc1OCCCN1CCOCC1` [gefitinib], the “Drug concentration in human tumor tissue relative to plasma levels” value in data set [4] was “up to 40 fold”.
`O=C(c1cc(Cc2n[nH]c(=O)c3ccccc23)ccc1F)N1CCN(C(=O)C2CC2)CC1` [olaparib]: the “Effect of stable H6PD knockdown on potency (cell viability)” value in the data set with CAL-51 shH6PD cells is “increased the potency”.
As for `NC(=O)c1cccc2cn(-c3ccc([C@@H]4CCCNC4)cc3)nc12` [niraparib], the “Inhibition of DCK activity in cell-free extracts” value at DCK [5] is on record as “specific inhibition”. Moreover, the “Rescue of A549 cells from cytarabine toxicity” value in the data set on A549 cells (DI-39 as positive control) is “dose-dependently rescued”. Moreover, in the data set with A549 cells (A549 cells), the “Concentrations needed to observe reduced cytarabine toxicity” value was 20 to 40 µM.
For the molecule `CN(CCCN)Cc1ccc(-c2[nH]c3cc(F)cc4c3c2CCNC4=O)cc1` [c-rucaparib], at H6PD [6], the “Enrichment of H6PD by affinity matrix (immunoblot)” value is reported as “specifically enriched”.
Regarding `NCCCN1CCC[C@@H](c2ccc(-n3cc4cccc(C(N)=O)c4n3)cc2)C1` [c-niraparib], the “Enrichment of DCK by affinity matrix (immunoblot)” value at DCK [7] is “confirmed”.
In the case of `Cn1ncnc1[C@H]1c2n[nH]c(=O)c3cc(F)cc(c23)N[C@@H]1c1ccc(F)cc1` [talazoparib], in the data set with CAL-51 shH6PD cells, the “Effect of stable H6PD knockdown on potency (cell viability)” value is “increased the potency”.
